The structures appear in SMILES notation.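 How tested: cells in 96-well plates exposed to compound for 48 hours at five concentrations. GI50 marks 50% less growth.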 The source made the active and inactive calls. Rule as the data show it: active = GI50 up to about 1.1 µM and inactive = higher.

Among the test systems are SK-OV-3; MDA-N; PC-3; SK-MEL-5; SK-MEL-2; SW-620; SN12C; DU-145; UACC-257; OVCAR-8; NCI-H460; HCT-15; T47D; Malme-3M; UO-31; EKVX; 786-0; HCC 2998; RXF 393; OVCAR-4.
What all share (experiment): NCI-60 cell line screen, 48 h

On to `Cc1cc2c(cc1C(=O)c1ccc(N)cc1)OCO2`, for which the GI50 with SK-OV-3 was 24.5 µM (inactive); with MDA-N it was 12.4 µM (inactive); in the test on PC-3, 43.6 µM (inactive); with SK-MEL-5, 20 µM (inactive); in the test on SK-MEL-2, 23.9 µM (inactive); in the test on SW-620, 34.8 µM (inactive). The GI50 was 49.5 µM (inactive) in the test on SN12C; 55 µM (inactive) in the test with DU-145; > 100 µM (inactive) in the test on UACC-257; > 100 µM (inactive) with OVCAR-8; 33.7 µM (inactive) with NCI-H460; 30.4 µM in the test on HCT-15. Further, the GI50 in the test on T47D is 28 µM (inactive); with Malme-3M, 33.8 µM (inactive); in the test on UO-31 it was 77.8 µM (inactive); with EKVX, 31 µM (inactive); in the test on 786-0, 34.6 µM (inactive).
On to `Cc1c(/C=N/NC(=S)N2CCCCC2)c(=O)n(-c2ccccc2)n1C`, for which the GI50 with SK-OV-3 was 68.1 µM (inactive); in the test on MDA-N, > 100 µM (inactive); with HCC 2998, 75 µM (inactive); in the test with PC-3, > 100 µM (inactive); in the test on SK-MEL-5, 38.5 µM (inactive); with SW-620 it was 74.1 µM (inactive). Besides, the GI50 in the test on RXF 393 was 26.5 µM (inactive); in the test on DU-145, > 100 µM (inactive); with UACC-257, > 100 µM (inactive); in the test on OVCAR-8, 42.8 µM (inactive); in the test on NCI-H460, 37.1 µM (inactive); with HCT-15, 23.1 µM. The GI50 in the test on Malme-3M was 54.1 µM (inactive); with UO-31 it was 42.4 µM (inactive); in the test on EKVX it was 43.8 µM (inactive); with 786-0, 73.5 µM (inactive).
Consider `CC(CO)C1C[C@H](O)[C@@]2(C)CC(=O)C=C(CO)[C@@H]2C1` (some centres not stated), for which the GI50 in the test on SK-OV-3, with MDA-N, in the test with HCC 2998, with SK-MEL-5, in the test with SK-MEL-2 and with SW-620 was > 100 µM (inactive) throughout. The GI50 with SN12C, in the test on RXF 393, in the test on DU-145, in the test with UACC-257, with OVCAR-8 and with NCI-H460 was > 100 µM (inactive) each time. Moreover, the GI50 was greater than 100 µM with HCT-15; > 100 µM (inactive) in the test with T47D; > 100 µM (inactive) in the test on OVCAR-4; > 100 µM (inactive) in the test on UO-31; > 100 µM (inactive) in the test on EKVX; > 100 µM (inactive) in the test with 786-0.
Consider `N#Cc1c(Cl)c(C=O)c(=O)n2c1[nH]c1ccccc12`, for which the GI50 with SK-OV-3 is > 100 µM (inactive); in the test with MDA-N, 43.7 µM (inactive); with HCC 2998, > 100 µM (inactive); with PC-3, 55.1 µM (inactive); with SK-MEL-5 it was 91.8 µM (inactive); with SW-620, 77.4 µM (inactive). The GI50 with SN12C is 61.8 µM (inactive); with DU-145 it was 50.4 µM (inactive); in the test on UACC-257 it was 56.8 µM (inactive); in the test with OVCAR-8 it was 42.1 µM (inactive); with NCI-H460 it was > 100 µM (inactive); with HCT-15 it was 57.5 µM. Besides, the GI50 was 84.5 µM (inactive) in the test on OVCAR-4; 26.4 µM (inactive) in the test on Malme-3M; 46.2 µM (inactive) in the test with UO-31; > 100 µM (inactive) with EKVX; 55.7 µM (inactive) in the test on 786-0.
As to `CC(C)=C[C@H]1CCC2(OCCO2)[C@]1(C)CO`, the GI50 in the test on SK-OV-3, with MDA-N, with HCC 2998, with PC-3, with SK-MEL-5 and in the test with SK-MEL-2 was > 100 µM (inactive) throughout. Besides, the GI50 in the test with SW-620, with SN12C, with RXF 393, in the test on UACC-257, with OVCAR-8 and with NCI-H460 was > 100 µM (inactive) in each case. The GI50 is greater than 100 µM with HCT-15; > 100 µM (inactive) with T47D; > 100 µM (inactive) with OVCAR-4; > 100 µM (inactive) with Malme-3M; > 100 µM (inactive) in the test with UO-31; 58.7 µM (inactive) in the test on EKVX. In addition, in the test with 786-0, the GI50 was > 100 µM (inactive).
With `Oc1ccc(Cc2cc(Cc3ccc(O)cc3)cc(Cc3ccc(O)cc3)c2)cc1`, the GI50 with SK-OV-3, with MDA-N, in the test with HCC 2998, in the test on PC-3, in the test with SK-MEL-2 and with SW-620 was > 50 µM (inactive) throughout. Also, the GI50 is > 50 µM (inactive) with SN12C; > 50 µM (inactive) in the test on DU-145; > 50 µM (inactive) in the test on UACC-257; > 50 µM (inactive) with OVCAR-8; > 50 µM (inactive) in the test with NCI-H460; greater than 50 µM in the test on HCT-15. In addition, the GI50 with OVCAR-4, in the test with Malme-3M, in the test on UO-31, in the test with EKVX and in the test with 786-0 was > 50 µM (inactive) in each case.
Turning to `C=C1CCC2CC1C(C(=O)c1c[nH]c3ccccc13)=NC2(C)C` (configuration not stated), the GI50 in the test on SK-OV-3, with MDA-N, with HCC 2998, in the test with PC-3, in the test on SK-MEL-5 and in the test on SW-620 was > 100 µM (inactive) in each case. For the same compound, the GI50 was > 100 µM (inactive) in the test with SN12C; > 100 µM (inactive) in the test with DU-145; > 100 µM (inactive) in the test on UACC-257; > 100 µM (inactive) in the test with OVCAR-8; > 100 µM (inactive) in the test on NCI-H460; greater than 100 µM in the test on HCT-15. Also, the GI50 with T47D was 48.2 µM (inactive); in the test on OVCAR-4, > 100 µM (inactive); in the test on Malme-3M it was > 100 µM (inactive); in the test with UO-31, > 100 µM (inactive); in the test with EKVX, 77.3 µM (inactive); in the test on 786-0 it was > 100 µM (inactive).
For the compound `CN(C)CCCOCCn1c2c(c3ccccc31)CCCC2`, the GI50 is > 10 µM (inactive) with SK-OV-3; 14.9 µM (inactive) in the test on MDA-N; 14.4 µM (inactive) with HCC 2998; 12.9 µM (inactive) with PC-3; 12.7 µM (inactive) in the test with SK-MEL-5; 13.4 µM (inactive) in the test with SK-MEL-2. For the same compound, the GI50 in the test with SW-620 was 18.7 µM (inactive); in the test on SN12C, 16.9 µM (inactive); in the test on DU-145, 27.9 µM (inactive); in the test on UACC-257 it was 18.2 µM (inactive); in the test on OVCAR-8, 17.5 µM (inactive); with NCI-H460, 15 µM (inactive). Also, the GI50 is 15 µM with HCT-15; 23.2 µM (inactive) with T47D; 15.2 µM (inactive) with OVCAR-4; 18 µM (inactive) with Malme-3M; 17.1 µM (inactive) in the test with UO-31; 21.9 µM (inactive) with EKVX. In the test with 786-0, the GI50 was 15.2 µM (inactive).
As for `NC(Cc1ccc(OCc2ccccc2)cn1)C(=O)OCc1ccccc1` (configuration not stated), the GI50 was > 100 µM (inactive) with MDA-N; 52.4 µM (inactive) with HCC 2998; > 100 µM (inactive) with PC-3; > 100 µM (inactive) in the test on SK-MEL-5; > 100 µM (inactive) in the test on SW-620; > 100 µM (inactive) with SN12C. The GI50 with RXF 393 is > 100 µM (inactive); in the test with DU-145 it was > 100 µM (inactive); with UACC-257, > 100 µM (inactive); in the test on OVCAR-8, > 100 µM (inactive); in the test on NCI-H460 it was > 100 µM (inactive); with HCT-15, greater than 100 µM. In addition, the GI50 in the test on OVCAR-4, in the test with Malme-3M, in the test with UO-31, in the test with EKVX and in the test on 786-0 was > 100 µM (inactive) in each case.
For the compound `Cc1cc(=O)oc2c(OS(C)(=O)=O)c(OS(C)(=O)=O)ccc12`, the GI50 in the test on MDA-N, in the test on HCC 2998, with PC-3, with SK-MEL-5, with SK-MEL-2 and in the test with SW-620 was > 100 µM (inactive) throughout. Moreover, the GI50 in the test on SN12C was > 100 µM (inactive); in the test with UACC-257, > 100 µM (inactive); in the test with OVCAR-8, > 100 µM (inactive); in the test on NCI-H460, > 100 µM (inactive); with HCT-15, greater than 100 µM; with OVCAR-4 it was > 100 µM (inactive). Moreover, the GI50 with Malme-3M, with UO-31, with EKVX and in the test on 786-0 was > 100 µM (inactive) each time.
On to `CCOC(=O)C(NC(=O)C(CCCCNP(=O)(OCC)OCC)NC(=O)C(C)NC(C)=O)C(C)C` (configuration not stated), for which the GI50 with MDA-N, with HCC 2998, with PC-3, with SK-MEL-5, in the test on SK-MEL-2 and with SW-620 was > 100 µM (inactive) in each case. In addition, the GI50 in the test on SN12C, in the test with RXF 393, with DU-145, in the test on UACC-257, in the test on OVCAR-8 and in the test on NCI-H460 was > 100 µM (inactive) throughout. Also, the GI50 was greater than 100 µM in the test on HCT-15; > 100 µM (inactive) in the test with OVCAR-4; > 100 µM (inactive) in the test on Malme-3M; > 100 µM (inactive) in the test on UO-31; > 100 µM (inactive) in the test on EKVX; > 100 µM (inactive) with 786-0.

For the origin of these results see ChEMBL document CHEMBL1201862, “PubChem BioAssay data set” (2004).
